From article PMC7263498 (bioRxiv, 2020)

Target: M^Pro (SARS-CoV-2 main protease) (Severe acute respiratory syndrome coronavirus 2, UniProt P0DTD1)
Test: FRET peptide
Type: biochemical

CN1CCN(CC(=O)N2c3ccccc3C(=O)Nc3cccnc32)CC1 [Pirenzepine]
% activation at 1 mM: > 15%
